From patent US20090036448A1, “PYRIMIDINE DERIVATIVES AND METHODS OF TREATMENT RELATED TO THE USE THEREOF” (TAISHO PHARMECUTICAL CO., LTD., priority 2004, published 2009)
pIC50: −log10 of the molar value. Counter-ions that a name gives are not always drawn.

Target: MCH receptor (Homo sapiens, UniProt Q99705)
Test: FLIPR/FDSS6000 functional assay: intracellular Ca2+ changes evoked by MCH
Assay type: cell-based
Details: antagonist activity, 50 nM of MCH, [Ca2+]i by FLIPR or FDSS; read-out: IC50
Excerpt: Subsequently, a functional based assay was used to confirm the lead hits, referred to as FLIPR™ (the Fluorometric Imaging Plate Reader) and FDSS6000™ (Functional Drug Screening System). This assay utilized a non-endogenous, constitutively active version of the MCH receptor.
The FLIPR and FDSS assays are able to detect intracellular Ca^2+ concentration in cells, which can be utilized to assess receptor activation and determine whether a candidate compound is an, for example, antagonist, inverse agonist or agonist to a Gq-coupled receptor. The concentration of free Ca^2+ in the cytosol of any cell is extremely low, whereas its concentration in the extracellular fluid and endoplasmic reticulum (ER) is very high. Thus, there is a large gradient tending to drive Ca^2+ into the cytosol across both the plasma membrane and ER. The FLIPR™ and FDSS6000™ systems (Molecular Devices Corporation, HAMAMATSU Photonics K.K.) are designed to perform functional cell-based assays, such as the measurement of intracellular calcium for high-throughput screening. The measurement of fluorescent is associated with calcium release upon activation of the Gq-coupled receptors.
Fluorometric Imaging Plate Reader system was used to allow for rapid, kinetic measurements of intracellular fluorescence in 96 well microplates (or 384 well microplates). Simultaneous measurements of fluorescence in all wells can be made by FLIPR or FDSS6000™ every second with high sensitivity and precision. These systems are ideal for measuring cell-based functional assays such as monitoring the intracellular calcium fluxes that occur within seconds after activation of the Gq coupled receptor.
Briefly, the cells are seeded into 96 well at 5.5×10^4 cells/well with complete culture media (Dulbecco's Modified Eagle Medium with 10% fetal bovine serum, 2 mM L-glutamine, 1 mM sodium pyruvate and 0.5 mg/mL G418, pH 7.4) for the assay next day. On the day of assay, the media is removed and the cells are incubated with 100 μl of loading buffer (4 μM Fluo-4-AM in complete culture media containing 2.5 mM Probenicid, 0.5 mg/ml and 0.2% bovine serum albumin) in 5% CO2 incubator at 37° C. for 1 hr. The loading buffer is removed, and the cells are washed with wash buffer (Hank's Balanced Salt Solution containing 2.5 mM Probenicid, 20 mM HEPES, 0.5 mg/mL and 0.2% bovine serum albumin, pH 7.4). One hundred fifty μl of wash buffer containing various concentrations of test compound is added to the cells, and the cells are incubated in 5% CO2 incubator at 37° C. for 30 min. Fifty μl of wash buffer containing various concentration of MCH are added to each well, and transient changes in [Ca^2+]i evoked by MCH are monitored using the FLIPR or FDSS in 96 well plates at Ex. 488 nm and Em. 530 nm for 290 second. When antagonist activity of compound is tested, 50 nM of MCH is used.
Use of FLIPR™ and FDSS6000™ can be accomplished by following manufacturer's instruction (Molecular Device Corporation and HAMAMATSU Photonics K.K.).

pIC50 | SMILES
7.59 | Cc1nc(N[C@H]2CC[C@@H](NC(=O)c3cccc(Cl)c3)CC2)cc(N(C)C)n1 [Example 24, 3-Chloro-N-(cis-4-{[6-(dimethylamino)-2-methylpyrimidin-4-yl]amino}cyclohexyl)-benzamide hydrochloride]

Same assay, conditions: class by percent of control at 10^−7 M or by IC50; antagonist activity, 50 nM of MCH; read-out: class

pIC50 | SMILES
> 7.30 | Cc1nc(N[C@H]2CC[C@@H](NC(=O)c3cc(F)c(F)c(F)c3)CC2)cc(N(C)C)n1 [Example 11, N-(cis-4-{[6-(Dimethylamino)-2-methylpyrimidin-4-yl]amino}cyclohexyl)-3,4,5-trifluorobenzamide hydrochloride]
6.70 to 7.30 | Cc1nc(N[C@H]2CC[C@@H](NC(=O)c3cncc(Br)c3)CC2)cc(N(C)C)n1 [Example 12, 5-Bromo-N-(cis-4-{[6-(dimethylamino)-2-methylpyrimidin-4-yl]amino}cyclohexyl)-nicotinamide dihydrochloride]
< 6.70 | Cc1nc(N[C@H]2CC[C@@H](NC(=O)c3ccc(C(F)(F)F)c(F)c3)CC2)cc(N(C)C)n1 [Example 15, N-(cis-4-{[6-(Dimethylamino)-2-methylpyrimidin-4-yl]amino}cyclohexyl)-3-fluoro-4-(trifluoromethyl)benzamide hydrochloride]
6.70 to 7.30 | Cc1nc(N[C@H]2CC[C@@H](NC(=O)c3ccc(OC(F)(F)F)c(Cl)c3)CC2)cc(N(C)C)n1 [Example 16, 3-Chloro-N-(cis-4-{[6-(dimethylamino)-2-methylpyrimidin-4-yl]amino}cyclohexyl)-4-(trifluoromethoxy)benzamide hydrochloride]
< 6.70 | Cc1nc(N[C@H]2CC[C@@H](NC(=O)c3ccc(C(F)(F)F)cc3)CC2)cc(N(C)C)n1 [Example 19, N-(cis-4-{[6-(Dimethylamino)-2-methylpyrimidin-4-yl]amino}cyclohexyl)-4-(trifluoromethyl)benzamide hydrochloride]
< 6.70 | Cc1nc(N[C@H]2CC[C@@H](NC(=O)c3ccccc3F)CC2)cc(N(C)C)n1 [Example 22, N-(cis-4-{[6-(Dimethylamino)-2-methylpyrimidin-4-yl]amino}cyclohexyl)-2-fluorobenzamide hydrochloride]
6.70 to 7.30 | Cc1nc(N[C@H]2CC[C@@H](NC(=O)c3cccc(F)c3)CC2)cc(N(C)C)n1 [Example 23, N-(cis-4-{[6-(Dimethylamino)-2-methylpyrimidin-4-yl]amino}cyclohexyl)-3-fluorobenzamide hydrochloride]
> 7.30 | Cc1nc(N[C@H]2CC[C@@H](NC(=O)c3cccc(Cl)c3)CC2)cc(N(C)C)n1 [Example 24, 3-Chloro-N-(cis-4-{[6-(dimethylamino)-2-methylpyrimidin-4-yl]amino}cyclohexyl)-benzamide hydrochloride]
6.70 to 7.30 | Cc1nc(N[C@H]2CC[C@@H](NC(=O)c3ccc(Cl)cc3)CC2)cc(N(C)C)n1 [Example 25, 4-Chloro-N-(cis-4-{[6-(dimethylamino)-2-methylpyrimidin-4-yl]amino}cyclohexyl)-benzamide hydrochloride]
< 6.70 | Cc1nc(N[C@H]2CC[C@@H](CNC(=O)c3ccc(F)c(F)c3)CC2)cc(N(C)C)n1 [Example 29, N-[(cis-4-{[6-(Dimethylamino)-2-methylpyrimidin-4-yl]amino}cyclohexyl)methyl]-3,4-difluorobenzamide hydrochloride]
< 6.70 | CNc1cc(N[C@H]2CC[C@@H](NC(=O)c3ccc(F)c(F)c3)CC2)nc(C)n1 [Example 30, 3,4-Difluoro-N-(cis-4-{[2-methyl-6-(methylamino)pyrimidin-4-yl]amino}cyclohexyl)-benzamide hydrochloride]
6.70 to 7.30 | CNc1cc(N[C@H]2CC[C@@H](NC(=O)c3ccc(F)c(Cl)c3)CC2)nc(C)n1 [Example 31, 3-Chloro-4-fluoro-N-(cis-4-{[2-methyl-6-(methylamino)pyrimidin-4-yl]amino}cyclohexyl)-benzamide hydrochloride]
> 7.30 | CCc1nc(N[C@H]2CC[C@@H](NC(=O)c3ccc(F)c(F)c3)CC2)cc(N(C)C)n1 [Example 32, N-(cis-4-{[6-(Dimethylamino)-2-ethylpyrimidin-4-yl]amino}cyclohexyl)-3,4-difluorobenzamide hydrochloride]

The remaining lines, values behind:

SMILES | pIC50
Cc1nc(N[C@H]2CC[C@@H](NC(=O)c3cc(F)cc(F)c3)CC2)cc(N(C)C)n1 [Example 13, N-(cis-4-{[6-(Dimethylamino)-2-methylpyrimidin-4-yl]amino}cyclohexyl)-3,5-difluorobenzamide hydrochloride] | 6.70 to 7.30
Cc1nc(N[C@H]2CC[C@@H](NC(=O)c3ccc(F)c(C(F)(F)F)c3)CC2)cc(N(C)C)n1 [Example 14, N-(cis-4-{[6-(Dimethylamino)-2-methylpyrimidin-4-yl]amino}cyclohexyl)-4-fluoro-3-(trifluoromethyl)benzamide hydrochloride] | > 7.30
Cc1nc(N[C@H]2CC[C@@H](NC(=O)c3cccc(C(F)(F)F)c3)CC2)cc(N(C)C)n1 [Example 17, N-(cis-4-{[6-(Dimethylamino)-2-methylpyrimidin-4-yl]amino}cyclohexyl)-3-(trifluoromethyl)-benzamide hydrochloride] | > 7.30
Cc1nc(N[C@H]2CC[C@@H](NC(=O)c3cccc(OC(F)(F)F)c3)CC2)cc(N(C)C)n1 [Example 18, N-(cis-4-{[6-(Dimethylamino)-2-methylpyrimidin-4-yl]amino}cyclohexyl)-3-(trifluoromethoxy)benzamide hydrochloride] | > 7.30
Cc1nc(N[C@H]2CC[C@@H](NC(=O)c3ccc(OC(F)(F)F)cc3)CC2)cc(N(C)C)n1 [Example 20, N-(cis-4-{[6-(Dimethylamino)-2-methylpyrimidin-4-yl]amino}cyclohexyl)-4-(trifluoromethoxy)benzamide hydrochloride] | < 6.70
Cc1nc(N[C@H]2CC[C@@H](NC(=O)c3cc(Cl)cc(Cl)c3)CC2)cc(N(C)C)n1 [Example 21, 3,5-Dichloro-N-(cis-4-{[6-(dimethylamino)-2-methylpyrimidin-4-yl]amino}cyclohexyl)-benzamide hydrochloride] | > 7.30
Cc1nc(N[C@H]2CC[C@@H](NC(=O)c3cc(F)cc(C(F)(F)F)c3)CC2)cc(N(C)C)n1 [Example 26, N-(cis-4-{[6-(Dimethylamino)-2-methylpyrimidin-4-yl]amino}cyclohexyl)-3-fluoro-5-(trifluoromethyl)benzamide hydrochloride] | 6.70 to 7.30
Cc1nc(N[C@H]2CC[C@@H](NC(=O)c3cc(C(F)(F)F)cc(C(F)(F)F)c3)CC2)cc(N(C)C)n1 [Example 27, N-(cis-4-{([6-(Dimethylamino)-2-methylpyrimidin-4-yl]amino}cyclohexyl)-3,5-bis-(trifluoromethyl)benzamide hydrochloride] | 6.70 to 7.30
Cc1nc(NC[C@H]2CC[C@@H](NC(=O)c3ccc(F)c(F)c3)CC2)cc(N(C)C)n1 [Example 28, N-[cis-4-({[6-(Dimethylamino)-2-methylpyrimidin-4-yl]amino}methyl)cyclohexyl]-3,4-difluorobenzamide hydrochloride] | < 6.70
CN(C)c1cc(N[C@H]2CC[C@@H](NC(=O)c3ccc(F)c(F)c3)CC2)nc(N(C)C)n1 [Example 33, N-(cis-4-{[2,6-bis(Dimethylamino)pyrimidin-4-yl]amino}cyclohexyl)-3,4-difluorobenzamide hydrochloride] | 6.70 to 7.30
CCNc1nccc(N[C@H]2CC[C@@H](NC(=O)c3ccc(F)c(F)c3)CC2)n1 [Example 34, N-(cis-4-{[2-(Ethylamino)pyrimidin-4-yl]amino}cyclohexyl)-3,4-difluorobenzamide hydrochloride] | < 6.70
